Assay: mn = molality of the nth substance listed, in mol/kg
Settings: Liquid, Vibrating tube method

NCCS(=O)(=O)[O-].[K+] [potassium taurate] + O
mass density [kg/m3]
Settings	m1 = 0.89	m1 = 1.6
283 K	1084	–
288 K	1083	–
293 K	1081	1145
298 K	1079	1143
303 K	1078	1141
308 K	1076	1139
313 K	1073	1136
318 K	1071	1134
323 K	1069	1131
328 K	1066	1129
333 K	1064	1126
338 K	1061	1123
343 K	1058	1120
348 K	–	1117
353 K	1051	1114
358 K	–	1111
363 K	–	1108
373 K	1037	1101
393 K	1021	1086

NCC(=O)[O-].[K+] [potassium glycinate] + O
mass density [kg/m3], 101 kPa
Settings	m1 = 0.99	m1 = 1.78
293 K	1065	1130
298 K	1064	1128
303 K	1062	1126
308 K	1060	1124
313 K	1058	1121
318 K	1056	1119
323 K	1053	1116
328 K	1051	1114
333 K	1048	1111
338 K	1045	1108
343 K	1042	1105
348 K	1039	1102
353 K	1036	1099
358 K	1033	1096
363 K	1030	1093
373 K	1023	1086
393 K	1007	–

— the NIST ThermoML archive (doi:10.1021/je500305u)
